Counter-ions that a name gives are not always drawn.
Tests used:
[1] = Metabolic stability in human liver microsomes; type: in vitro ADME; settings: human liver microsomes
Method: Pooled liver microsomes are purchased from a reputable commercial supplier. Microsomes are stored at […] prior to use. Microsomes (final protein concentration 0.5 mg/mL), 0.1 M phosphate buffer pH 7.4 and test compound (final substrate concentration 1 μM; final DMSO concentration 0.25%) are preincubated at 37° C. prior to the addition of NADPH (final concentration 1 mM) to initiate the reaction. A minus cofactor control incubation is included for each compound tested where 0.1 M phosphate buffer pH 7.4 is added instead of NADPH (minus NADPH). Two control compounds are included with each species. All incubations are performed singularly for each test compound. Each compound is incubated for 0, 5, 15, 30 and 45 min. The control (minus NADPH) is incubated for 45 min only. The reactions are stopped by transferring incubate into acetonitrile at the appropriate time points, in a 1:3 ratio. The termination plates are centrifuged at 3,000 rpm for 20 min at 4° C. to precipitate the protein.
From a plot of ln peak area ratio (compound peak area/internal standard peak area) against time, the gradient of the line is determined. Subsequently, half-life and intrinsic clearance are calculated using the equations below: Elimination rate constant (k)=(−gradient) Half-life (t½)(min)=0.693/k Intrinsic clearance (CLint)(μL/min/mg protein)=V×0.693/t½ where V=Incubation volume (μL)/Microsomal protein (mg)
Relevant control compounds were assessed, ensuring intrinsic clearance values fall within the specified limits (if available).

Male Sprague-Dawley rats = experiment: Rat elevated zero-maze model of anxiety; type: in vivo; settings: for decrease in SAPs compared with chlordiazepoxide / time spent in the open arms compared with chlordiazepoxide: 30 mg/kg ip vs chlordiazepoxide 6 mg/kg ip; for anxiolytic effects compared with chlordiazepoxide: high dose level; for time in the open arms: FIGS. 62-64
From the text: The rat zero-maze model is a refined alternative to the plus-maze, the most widely used animal model of anxiety, and consists of an elevated annular platform, divided equally into four quadrants. Two opposite quadrants are enclosed by Perspex walls on both the inner and the outer edges of the platform, while the remaining two opposite quadrants are open being enclosed only by a Perspex “lip”. Animals will show a preference for the closed areas, and avoidance of the open sections is assumed to stem from a rodent's natural aversion to open, exposed spaces. The primary index of anxiety, which reflect changes in open arm preference, is the percentage of time spent on the open areas. A reduction in the amount of activity on the open areas is considered to reflect an increase in anxiety. Other, ethologically-based behaviours are also assessed as indices of anxiety. One of the most important is stretched attend postures (SAP) from closed to open quadrants. […] Shepherd, J K; et al., (1994) Behavioural and pharmacological validation of the elevated “zero-maze” as an animal model of anxiety. Psychopharmacol., 116:56-64.
Male Sprague-Dawley 200-250 g (Envigo UK) rats were used. Animals were group-housed (5 per cage; cage size: 40×40×20 cm) in a temperature-controlled environment (22±2° C.), under a 12 h light-dark cycle (lights on: 08:00 hours) for one week prior to testing. Food and water were freely available. Number of animals per group=5. Animals were moved into the experimental room 16-24 hours before testing.
The elevated 0-maze comprises a black Perspex annular platform (105 cm diameter, 10 cm width) elevated to 65 cm above ground level, divided equally into four quadrants. Two opposite quadrants are enclosed by clear red Perspex walls (27 cm high) on both the inner and outer edges of the platform, while the remaining two opposite quadrants are surrounded only by a Perspex “lip” (1 cm high) which serves as a tactile guide to animals on these open areas.
Subjects were weighed and tail marked before being injected. After a specified pre-treatment time, subjects were placed in a closed quadrant and a 5-min test period were recorded on videotape for subsequent analysis. The maze were cleaned with 5% methanol/water solution and dried thoroughly between test sessions. Behavioural measures comprise percentage time spent on the open areas (% TO) and frequency of stretched attend postures (SAP) from closed to open quadrants. Since the control groups were all treated identically with the same vehicle these were combined to increase power. The Chlordiazepoxide groups were also treated identically with the same dose so these were also combined to increase power. Animals are scored as being in the open area when all four paws were in an open quadrant and in the closed area only when all four paws have passed over the open-closed divide. All testing were carried out between 9.00 and 16.00 hours.
For each study, a 1-way ANOVA was conducted across vehicle, CDP, and drug treatment groups. Each group was compared to the vehicle group and a p-value for treatment determined by Fishers Least Significant Difference (LSD) test. This analysis was performed in GraphPad Prism (Version 9). Formulations: […]
Intraperitoneal (IP): Racemic methylone HCl was formulated in Vehicle 1 (Saline) for injection to concentrations of 1, 3 and 6 mg/mL to provide doses of 5, 15 and 30 mg/kg when administered ip in 5 mL/kg dosing volumes.
Intraperitoneal (IP): S-methylone HCl was formulated in Vehicle 1 (Saline) for injection to concentrations of 0.5, 1, 1.5, 3 and 6 mg/mL to provide doses of 2.5, 5, 7.5, 15 and 30 mg/kg when administered ip in 5 mL/kg dosing volumes.
Intraperitoneal (IP): R-methylone HCl was formulated in Vehicle 1 (Saline) for injection to concentrations of 1, 3 and 6 mg/mL to provide doses of 5, 15 and 30 mg/kg when administered ip in 5 mL/kg dosing volumes. […]

[2] = system: participants diagnosed with at least moderate post-traumatic stress disorder (PTSD); experiment: Double-blind, randomized, placebo-controlled clinical trial of methylone-assisted psychotherapy in PTSD; type: in vivo, human; settings: for CAPS-5 assessments compared to placebo-treated controls: Intervening Session 1C, 2C, 3C and Study Conclusion; for clinician-rated functional impairment score as measured by SDS / depression as measured by HAM-D: vs placebo-treated controls; for change in CAPS-5 assessment compared to the placebo group: 100-200 mg p.o. initial dose, 3 Experimental Sessions with psychotherapy
Method: A multicenter, randomized, double-blind, placebo-controlled trial is conducted to assess the efficacy and safety of methylone-assisted psychotherapy versus psychotherapy with placebo control in participants diagnosed with at least moderate post-traumatic stress disorder (PTSD).
This multicenter, randomized, double-blind, placebo-controlled trial is conducted at various sites in the United States with IRB approval from each study site. A flexible dose of methylone hydrochloride salt or placebo, followed by a supplemental half-dose unless contraindicated by patient's previous response or medical history, is also administered during the Treatment Period with psychotherapy in at least 3 blinded monthly Experimental Sessions. The Supplemental Dose extends the duration of drug effects on the participants during an Experimental Session. Methylone test groups are further subdivided into specific groups receiving only racemic methylone hydrochloride salt, S-methylone hydrochloride salt, or R-methylone hydrochloride salt. An optional Risk Evaluation and Mitigation Strategy (REMS) Protocol may be implemented for the racemic methylone, S-methylone, and placebo-groups. The Treatment Period lasts for approximately 12 weeks. During the Treatment Period, each Experimental Session is followed by three Intervening Sessions of non-drug psychotherapy. Each Experimental Session involves an overnight stay. The Primary Outcome measure, the change in Clinician Administered PTSD Scale for DSM-5 (CAPS-5), is determined by a blinded Independent Rater (IR) pool multiple times throughout the study. The study consists of separate periods for each participant. Initially, prospective participants undergo a Screening Period involving an initial eligibility assessment, a medical history intake, informed consent, and enrollment of eligible participants. Next, a Preparation Period is undertaken for enrolled participants involving medication tapering and clinical baseline assessments to confirm each participant meets enrollment criteria. As part of the Preparation Period, a detailed assessment of co-morbidities to PTSD is recorded. Participants may remain on prescribed courses of selective serotonin reuptake inhibitor (SSRI) or serotonin and norepinephrine reuptake inhibitor (SNRI) treatment. Dosages and/or frequency of administration of a prescribed SSRI or SNRI may be adjusted to fit within study parameters. Participants may be required to taper a prescribed course of medication in order to maintain eligibility within the study. The Treatment Period consists of three monthly Experimental Sessions and associated Intervening Sessions of integrative behavioral psychotherapy. The Treatment Period lasts approximately 12 weeks. Following the Treatment Period is a Follow-up Period and Study Conclusion. During the Follow-up Period and Study Conclusion, participants complete 4 weeks with no study visits, followed by a Study Conclusion visit.
This study compares the effects of three blinded Experimental Sessions of psychotherapy in combination with flexible doses of methylone or placebo administered as described below. Non-drug preparatory and intervening psychotherapy sessions are also included. Patient's weight is determined for dosage calculation. Initial dose is 100 mg unless this will result in a dosage of less than 1.5 mg/kg of patient weight. Initial dose thereby adjusted upward in 25 mg increments to deliver the lowest dose possible of at least 1.5 mg/kg of patient weight. Initial dose for Experimental Session 2 and 3 is cumulative dose calculated by adding the initial dose plus REMS protocol dose used the previous Experimental Session for each patient.
Randomization occurs prior to the initiation of Experimental Session 1. Each participant is provided the next randomized number in a sequence by a blinded study monitor. […]

[3] = specific doses, ip, 30 min pretest
[4] = specific doses, ip, 30 min pretest, vs chlordiazepoxide 6 mg/kg, FIGS. 65-67

SMILES | difference in half-life and intrinsic clearance compared with the corresponding non-deuterated methylone hydrochloride [1] | decrease in SAPs compared with chlordiazepoxide (Male Sprague-Dawley rats) | time spent in the open arms compared with chlordiazepoxide (Male Sprague-Dawley rats) | anxiolytic effects compared with chlordiazepoxide (Male Sprague-Dawley rats) | time in the open arms (Male Sprague-Dawley rats; [3]) | frequency of SAPs (Male Sprague-Dawley rats; [4]) | CAPS-5 assessments compared to placebo-treated controls [2] | daytime sleepiness as measured by ESS ([2]; Study Conclusion) | clinician-rated functional impairment score as measured by SDS ([2]; Study Conclusion) | depression as measured by HAM-D ([2]; Study Conclusion) | change in CAPS-5 assessment compared to the placebo group ([2]; Study Conclusion) | also measured
Cl.[2H]C([2H])([2H])NC(C)C(=O)c1ccc2c(c1)OC([2H])([2H])O2 (racemic) [(rac)-Methylone-d5 hydrochloride, 1-(benzo[d][1,3]dioxol-5-yl-2,2-d2)-2-((methyl-d3)amino)propan-1-one HCl] | most significant difference in half-life and intrinsic clearance |  |  |  |  |  |  |  |  |  |  | 
Cl.[2H]C1([2H])Oc2ccc(C(=O)C(C)NC)cc2O1 (racemic) [(rac)-Methylone-d2 hydrochloride, 1-(benzo[d][1,3]dioxol-5-yl-2,2-d2)-2-((methyl)amino)propan-1-one HCl] | differences in half-life and intrinsic clearance |  |  |  |  |  |  |  |  |  |  | 
CN[C@@H](C)C(=O)c1ccc2c(c1)OCO2 [(S)-Methylone Hydrochloride, (S)-1-(benzo[d][1,3]dioxol-5-yl)-2-(methylamino)propan-1-one hydrochloride] |  | even more effective than chlordiazepoxide at reducing SAPs | as effective as chlordiazepoxide at increasing time spent in the open arms | anxiolytic effects as effective as chlordiazepoxide | increase time in the open arms | decreased the frequency of SAPs as effectively as the benzodiazepine chlordiazepoxide | Significant improvements in CAPS-5 assessments | significant improvement in lessening daytime sleepiness | significant improvement in clinician-rated functional impairment score | significant improvement depression | significant mean reduction in CAPS-5 assessment | frequency of SAPs, trend with dose (Male Sprague-Dawley rats; 2.5 mg/kg and 5 mg/kg ip): dose dependent increase in SAPs; time spent in the open arms, trend with dose (Male Sprague-Dawley rats; 5 mg/kg, 7.5 mg/kg and 15 mg/kg ip): time spent in the open arms decreased as the dose increased; frequency of SAPs, trend with dose (Male Sprague-Dawley rats; 7.5 mg/kg, 15 mg/kg and 30 mg/kg ip): dose dependent decrease in SAPS; overall effect on anxiety (Male Sprague-Dawley rats; 30 mg/kg ip): effective anxiolytic on all measures; time spent in the open arms (Male Sprague-Dawley rats; 30 mg/kg ip): time in the open arms increased; anxiogenic effects at lower doses (Male Sprague-Dawley rats; ip, hydrochloride): anxiogenic effects at lower doses; total dosage of drug needed for significant mean reduction in CAPS-5, compared to the racemic methylone-treated subgroup ([2]; Study Conclusion): lower total dosage of drug
CN[C@H](C)C(=O)c1ccc2c(c1)OCO2 [(R)-Methylone Hydrochloride, (R)-1-(benzo[d][1,3]dioxol-5-yl)-2-(methylamino)propan-1-one hydrochloride] |  | to the same level as chlordiazepoxide | as effective as chlordiazepoxide | anxiolytic effects as effective as chlordiazepoxide | increase time in the open arms | decreased the frequency of SAPs as effectively as the benzodiazepine chlordiazepoxide | Significant improvements in CAPS-5 assessments | significant improvement in lessening daytime sleepiness | significant improvement in clinician-rated functional impairment score | significant improvement depression | significant mean reduction in CAPS-5 assessment | frequency of SAPs (Male Sprague-Dawley rats; 30 mg/kg ip): significantly decreasing SAPs; frequency of SAPs, trend with dose (Male Sprague-Dawley rats; 5, 15 and 30 mg/kg ip): dose dependent decrease in SAPs; time spent in the open arms, trend with dose (Male Sprague-Dawley rats; 5, 15 and 30 mg/kg ip): dose dependent increase in time spent in the open arms; anxiogenic effect (Male Sprague-Dawley rats; any dose (5, 15, 30 mg/kg ip)): did not show any anxiogenic effect at any dose; anxiogenic effects at lower doses (Male Sprague-Dawley rats; ip): not seen; adverse anxiogenic incidents ([2]; compared to placebo-treated controls): without a significant increase in adverse anxiogenic incidents
